Experiment [1] addresses BCL-2 (binding to BAD peptide) (Homo sapiens, UniProt P10415). Put plainly: SPR (Biacore) solution inhibition assay, BCL-2 binding to immobilized BAD peptide. The following applies: biotinylated BAD peptide surface, 56 nM BCL-2, 25° C.; range = high and low IC50 values from multiple experiments; read-out: BCL2_SPR IC50 BAD. An excerpt: (§1) The present method includes utility of a Surface plasmon resonance (SPR)-based biosensor (Biacore™′ GE Healthcare, Uppsala, Sweden) to characterize BCL-2 inhibitors.
(§2) Biacore™ utilizes the phenomenon of surface plasmon resonance (SPR) to detect and measure binding interactions. In a typical Biacore experiment, one of the interacting molecules (ligand) is immobilized on a flexible dextran matrix while the interacting partner (analyte) is allowed to flow across that surface. A binding interaction results in an increase in mass on the sensor surface and a corresponding direct change in the refractive index of the medium in the vicinity of the sensor surface. Changes in refractive index or signal are recorded in resonance units (R.U.) Signal changes due to association and dissociation of complexes are monitored in a non-invasive manner, continuously and in real-time, the results of which are reported in the form of a sensorgram.
(§3) The SPR assay is configured to examine solution inhibition of BCL-2 binding to peptide derivatized sensor surfaces to generate IC50 values as a measure of inhibitor potency.
(§4) Biacore™ A100 (GE Healthcare, Uppsala, Sweden) was used to conduct all experiments reported herein. Sensor surface preparation and all interaction analyses experiments were performed at 25° C. Reagents were purchased from GE Healthcare. Running buffer containing 10 mM Hepes, pH7.4, 150 mM sodium chloride, 1.25 mM Dithiothreitol, 3% Dimethyl sulfoxide and 0.05% polysorbate 20 were utilized throughout all analyses.
(§5) Biotinylated BAK, BAD and NOXA peptides were diluted to 10 nM in running buffer and captured onto a sensor surface pre-derivatized with streptavidin (sensor chip SA) to peptide surface densities in the range 50-100 R.U. Peptide captured surfaces were blocked with 500 μM PEO2-Biotin.
(§6) Interaction analyses were performed by first equilibrating each sample within a 6 point three fold compound dilution series in the range 16 μM to […] with 56 nM BCL-2 for one hour during instrument start-up procedures. Protein compound mixtures were then injected over each peptide surface in parallel for 60 seconds at a flow-rate of 30 μL/min. 56 nM BCL-2 control samples were also prepared and run at regular intervals during the assay. Surface regeneration was performed at the end of each analysis cycle by two 30 second injections of 10 mM Glycine, pH 2.5, 1M Sodium Chloride, 0.05% polysorbate 20. Samples and control compound samples were run in duplicate and controls are also run at regular intervals during the assay to monitor surface and assay performance.
(§7) Data analyses are carried out using Biacore™ A100 evaluation software v1.1 to validate assay quality. Binding level report points were used relative to BCL-2 control samples to calculate % inhibition values for each compound protein mixture. […] The range of data shown in table 1 represents the high and low IC50 values obtained from multiple experiments.

Experiment [2] concerns the target BCL-2 (binding to BAK peptide) (Homo sapiens, UniProt P10415). Put plainly: SPR (Biacore) solution inhibition assay, BCL-2 binding to immobilized BAK peptide. The note with it: biotinylated BAK peptide surface, 56 nM BCL-2, 25° C.; range = high and low IC50 values from multiple experiments; read-out: BCL2_SPR IC50 BAK.
Source text: as §1, §2, §3, §4, §5, §6, §7

From US20140357633A1, “COMPOUNDS FOR INHIBITING THE INTERACTION OF BCL2 WITH BINDING PARTNERS” (NOVARTIS AG, priority 2011, published 2014) come the findings set out here.

Sequence of BCL-2 (binding to BAD peptide) (P10415 whole entry): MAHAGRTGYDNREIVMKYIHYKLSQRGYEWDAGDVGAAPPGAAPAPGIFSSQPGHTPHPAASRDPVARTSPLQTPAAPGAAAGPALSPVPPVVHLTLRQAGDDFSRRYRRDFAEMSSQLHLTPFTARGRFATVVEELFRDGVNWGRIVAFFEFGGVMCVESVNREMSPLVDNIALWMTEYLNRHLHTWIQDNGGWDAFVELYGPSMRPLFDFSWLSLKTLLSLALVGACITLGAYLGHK
Sequence of BCL-2 (binding to BAK peptide) (P10415 whole entry): as above

With `CCCCN(CCCC)C(=O)c1cc(C)n(-c2ccc(NC(=O)c3cc(=O)c4cc(C)ccc4o3)cc2C(=O)N2Cc3ccccc3C[C@H]2CO)n1` [Example 59], the results for the concentration for half-maximal inhibition (IC50) in experiment [1] and in experiment [2] were 531 to 537 nM and 395 to 410 nM, respectively.
The like results for `CCCCN(CCCC)C(=O)c1cc(C)n(-c2ccc(NC(=O)CCc3nc(-c4ccccc4)no3)cc2C(=O)N2Cc3ccccc3C[C@H]2CO)n1` [Example 60] were, in that order, 111 to 120 nM and 95.2 to 96.7 nM.
`CCCCN(CCCC)C(=O)c1cc(C)n(-c2ccc(NC(=O)CCCc3ccc([N+](=O)[O-])cc3)cc2C(=O)N2Cc3ccccc3C[C@H]2CO)n1` [Example 61]: the 50% inhibitory concentration (IC50) in experiment [1] lay in the range of 306 to 319 nM; in experiment [2] it was 229 to 271 nM.
The like results for `CCCCN(CCCC)C(=O)c1cc(C)n(-c2ccc(NC(=O)c3ncccc3O)cc2C(=O)N2Cc3ccccc3C[C@H]2CO)n1` [Example 62] were, in that order, 318 to 326 nM and 238 to 277 nM.
The like results for `CCCCN(CCCC)C(=O)c1cc(C)n(-c2ccc(NC(=O)Cc3c(C)[nH]c4c(F)cccc34)cc2C(=O)N2Cc3ccccc3C[C@H]2CO)n1` [Example 63] were, in that order, 67.4 to 76.1 nM and 58.3 to 61.2 nM.
Taken in the same sequence, the figures for `CCCCN(CCCC)C(=O)c1cc(C)n(-c2ccc(NC(=O)CCSc3ccc4ccccc4c3)cc2C(=O)N2Cc3ccccc3C[C@H]2CO)n1` [Example 64] were 138 to 149 nM and 112 to 133 nM.
`CCCCN(CCCC)C(=O)c1cc(C)n(-c2ccc(NC(=O)[C@@H]3COc4ccccc4O3)cc2C(=O)N2Cc3ccccc3C[C@H]2CO)n1` [Example 65]: the IC50 in experiment [1] was in the range of 172 to 173 nM; in experiment [2], 137 to 140 nM.
The like results for `CCCCN(CCCC)C(=O)c1cc(C)n(-c2ccc(NC(=O)COc3ccccc3C#N)cc2C(=O)N2Cc3ccccc3C[C@H]2CO)n1` [Example 66] were, in that order, 142 nM and 106 to 116 nM.
Turning to `CCCCN(CCCC)C(=O)c1cc(C)n(-c2ccc(NC(=O)C3Oc4cc5ccccc5cc4O3)cc2C(=O)N2Cc3ccccc3C[C@H]2CO)n1` [Example 67], the half-maximal inhibitory concentration (IC50) fell in the range of 48.9 to 52.7 nM in experiment [1] and 43.1 to 46 nM in experiment [2].
Taken in the same sequence, the figures for `CCCCN(CCCC)C(=O)c1cc(C)n(-c2ccc(NC(=O)c3ccccc3Oc3ccccc3)cc2C(=O)N2Cc3ccccc3C[C@H]2CO)n1` [Example 68] were 122 to 125 nM and 100 to 103 nM.
Taken in the same sequence, the figures for `CCCCN(CCCC)C(=O)c1cc(C)n(-c2ccc(NC(=O)Cc3cccc(OC)c3)cc2C(=O)N2Cc3ccccc3C[C@H]2CO)n1` [Example 69] were 91.3 to 101 nM and 67.3 to 73.9 nM.
The like results for `CCCCN(CCCC)C(=O)c1cc(C)n(-c2ccc(NC(=O)Cc3cc(F)ccc3OC)cc2C(=O)N2Cc3ccccc3C[C@H]2CO)n1` [Example 70] were, in that order, 143 to 158 nM and 133 to 134 nM.
Consider `CCCCN(CCCC)C(=O)c1cc(C)n(-c2ccc(NC(=O)c3cc(S(N)(=O)=O)ccc3OC)cc2C(=O)N2Cc3ccccc3C[C@H]2CO)n1` [Example 71], for which the IC50 in experiment [1] fell in the range of 93.5 to 99.9 nM; in experiment [2], 72 to 74.7 nM.
Taken in the same sequence, the figures for `CCCCN(CCCC)C(=O)c1cc(C)n(-c2ccc(NC(=O)C(OC)c3ccccc3)cc2C(=O)N2Cc3ccccc3C[C@H]2CO)n1` (stereo partly drawn) [Example 72] were 56.8 to 58.8 nM and 48.5 to 49.6 nM.
The like results for `CCCCN(CCCC)C(=O)c1cc(C)n(-c2ccc(NC(=O)c3c(C)n(C)n(-c4ccccc4)c3=O)cc2C(=O)N2Cc3ccccc3C[C@H]2CO)n1` [Example 73] were, in that order, 74.1 to 100 nM and 58.7 to 82.9 nM.
Taken in the same sequence, the figures for `CCCCN(CCCC)C(=O)c1cc(C)n(-c2ccc(NC(=O)C(CCNC(C)=O)c3ccccc3)cc2C(=O)C2Cc3ccccc3C[C@H]2CO)n1` (stereo partly drawn) [Example 74] were 95.1 to 96 nM and 80.8 to 81.4 nM.
Consider `CCCCN(CCCC)C(=O)c1cc(C)n(-c2ccc(NC(=O)Cc3cccc(F)c3)cc2C(=O)C2Cc3ccccc3C[C@H]2CO)n1` (stereo partly drawn) [Example 75], for which the half-inhibitory concentration (IC50) in experiment [1] fell in the range of 66.6 to 70 nM; in experiment [2] it was 53.2 to 59 nM.
`CCCCN(CCCC)C(=O)c1cc(C)n(-c2ccc(NC(=O)Cc3cccc(Cl)c3)cc2C(=O)N2Cc3ccccc3C[C@H]2CO)n1` [Example 76]: the IC50 in experiment [1] lay in the range of 59.8 to 59.9 nM; in experiment [2], 50.5 to 51.3 nM.
The like results for `CCCCN(CCCC)C(=O)c1cc(C)n(-c2ccc(NC(=O)Cc3ccc(OC)cc3)cc2C(=O)N2Cc3ccccc3C[C@H]2CO)n1` [Example 77] were, in that order, 65.8 to 71 nM and 55.8 to 64.3 nM.
As for `CCCCN(CCCC)C(=O)c1cc(C)n(-c2ccc(NC(=O)Cc3ccc(OC)c(C(F)(F)F)c3)cc2C(=O)N2Cc3ccccc3C[C@H]2CO)n1` [Example 78], the half-inhibitory concentration (IC50) in experiment [1] was 99.9 to 103 nM; in experiment [2], 73.6 to 83.8 nM.
The like results for `CCCCN(CCCC)C(=O)c1cc(C)n(-c2ccc(NC(=O)CCc3cn4cccnc4n3)cc2C(=O)N2Cc3ccccc3C[C@H]2CO)n1` [Example 79] were, in that order, 369 to 398 nM and 299 to 351 nM.
The like results for `CCCCN(CCCC)C(=O)c1cc(C)n(-c2ccc(NC(=O)c3oc4ccccc4c3C)cc2C(=O)N2Cc3ccccc3C[C@H]2CO)n1` [Example 80] were, in that order, 908 to 1110 nM and 1030 to 1070 nM.
Take `CCCCN(CCCC)C(=O)c1cc(C)n(-c2ccc(NC(=O)c3sccc3C)cc2C(=O)N2Cc3ccccc3C[C@H]2CO)n1` [Example 81]: the 50% inhibitory concentration (IC50) in experiment [1] was 1420 to 1460 nM; in experiment [2], 1040 to 1490 nM.
The like results for `CCCCN(CCCC)C(=O)c1cc(C)n(-c2ccc(NC(=O)c3cccc(Cl)c3O)cc2C(=O)N2Cc3ccccc3C[C@H]2CO)n1` [Example 83] were, in that order, 81.6 to 89.1 nM and 65.3 to 69.7 nM.
The like results for `CCCCN(CCCC)C(=O)c1cc(C)n(-c2ccc(NC(=O)c3ccc4c(c3)N=S=N4)cc2C(=O)N2Cc3ccccc3C[C@H]2CO)n1` [Example 84] were, in that order, 1020 to 1040 nM and 862 to 957 nM.
The like results for `CCCCN(CCCC)C(=O)c1cc(C)n(-c2ccc(NC(=O)c3cc(C(C)C)nn3CC)cc2C(=O)N2Cc3ccccc3C[C@H]2CO)n1` [Example 85] were, in that order, 923 to 932 nM and 741 to 784 nM.
With `CCCCN(CCCC)C(=O)c1cc(C)n(-c2ccc(NC(=O)c3ccc4c(C)c(C)[nH]c4c3)cc2C(=O)N2Cc3ccccc3C[C@H]2CO)n1` [Example 86], the values for the IC50 in experiment [1] and in experiment [2] were 611 to 628 nM and 432 to 440 nM, respectively.
The like results for `CCCCN(CCCC)C(=O)c1cc(C)n(-c2ccc(NC(=O)c3cc4cc(O)ccc4[nH]3)cc2C(=O)N2Cc3ccccc3C[C@H]2CO)n1` [Example 87] were, in that order, 350 to 375 nM and 486 to 509 nM.
The like results for `CCCCN(CCCC)C(=O)c1cc(C)n(-c2ccc(NC(=O)c3cnc(N4CCCC4)nc3)cc2C(=O)N2Cc3ccccc3C[C@H]2CO)n1` [Example 88] were, in that order, 388 to 405 nM and 290 to 393 nM.
Taken in the same sequence, the figures for `CCCCN(CCCC)C(=O)c1cc(C)n(-c2ccc(NC(=O)c3cc(SC)ccc3Cl)cc2C(=O)N2Cc3ccccc3C[C@H]2CO)n1` [Example 89] were 282 to 288 nM and 222 to 231 nM.
Regarding `CCCCN(CCCC)C(=O)c1cc(C)n(-c2ccc(NC(=O)CC(C)S(=O)(=O)c3ccc(Cl)cc3)cc2C(=O)N2Cc3ccccc3C[C@H]2CO)n1` (stereo partly drawn) [Example 90], the IC50 in experiment [1] fell in the range of 156 to 210 nM; in experiment [2], 159 to 187 nM.
Regarding `CCCCN(CCCC)C(=O)c1cc(C)n(-c2ccc(NC(=O)c3ccc(Oc4ccc(F)cc4)cc3)cc2C(=O)N2Cc3ccccc3C[C@H]2CO)n1` [Example 91], the IC50 in experiment [1] is above 16000 nM; in experiment [2], 3740 to 4130 nM.
The like results for `CCCCN(CCCC)C(=O)c1cc(C)n(-c2ccc(NC(=O)c3ccccc3COc3ccccc3)cc2C(=O)N2Cc3ccccc3C[C@H]2CO)n1` [Example 92] were, in that order, 1270 to 1350 nM and 1120 to 1180 nM.
As for `CCCCN(CCCC)C(=O)c1cc(C)n(-c2ccc(NC(=O)c3ccc(OC(F)(F)F)cc3)cc2C(=O)N2Cc3ccccc3C[C@H]2CO)n1` [Example 93], the IC50 lay in the range of 1850 to 1900 nM in experiment [1] and 1770 to 1830 nM in experiment [2].
Taken in the same sequence, the figures for `CCCCN(CCCC)C(=O)c1cc(C)n(-c2ccc(NC(=O)c3nn(-c4ccccc4)c(=O)cc3O)cc2C(=O)N2Cc3ccccc3C[C@H]2CO)n1` [Example 94] were 25.7 to 31.7 nM and 30.7 to 31.1 nM.
The like results for `CCCCN(CCCC)C(=O)c1cc(C)n(-c2ccc(NC(=O)Cc3ccc(OC)c(C)c3)cc2C(=O)N2Cc3ccccc3C[C@H]2CO)n1` [Example 95] were, in that order, 148 to 155 nM and 107 to 108 nM.
